Data: ChEMBL document CHEMBL4049397, “Design, synthesis and evaluation of derivatives based on pyrimidine scaffold as potent Pan-Raf inhibitors to overcome resistance” (Eur J Med Chem, 2017)

Assay: in vitro
Conditions: human, liver microsomes

half-life at 0.5 µM: 5.6 h
SMILES: CNC(=O)c1cc(Oc2ccc(NC(=O)Nc3ccc(Cl)c(C(F)(F)F)c3)cc2)ccn1 [SORAFENIB]
